Laboratory results taken from publication PMC9447987, “Long-term memory CD8^+ T cells specific for SARS-CoV-2 in individuals who received the BNT162b2 mRNA vaccine” (Nature Communications, 2022).
Read-outs that look alike come from different tables or passages of the source.

Columns and labels:
[1] = test system: HLA-A*24:02-restricted CD8+ T cells; type: cell-based, human
HLA-A*24:02 = HLA-A*24:02 (Homo sapiens, UniProt P04439, D101N/D140Y/D185E/E176V/E190D/F33S/G103R/G107R/I119L/I121M/I306V/K335N/L105A/L180Q/L300P/N151K/N90K/Q86E/Q94H/R106L/R138H/R89G/T104I/T345S/V100E/W191G/Y123F); assay: HLA stabilization assay using RMA-S-A2402 cells; type: binding; settings: for MFI, HLA-A2402 (APC), representative staining: RMA-S-A2402 cells, Suppl. Fig. 3b (for Fig. 4a, 4b), peptide(-) 14.8, 26 °C (Maximum) 32.7
[2] = convalescent donor C2, 45.290 weeks since PCR-confirmed diagnosis, […], peptide-pulsed C1R-A2402
[3] = convalescent donor C3, 2.430 weeks since PCR-confirmed diagnosis, […], peptide-pulsed C1R-A2402
[4] = convalescent donor C4, 35.000 weeks since PCR-confirmed diagnosis, […], peptide-pulsed C1R-A2402
[5] = convalescent donor C5, 41.430 weeks since PCR-confirmed diagnosis, […], peptide-pulsed C1R-A2402
[6] = convalescent donor C6, 20.000 weeks since PCR-confirmed diagnosis, […], peptide-pulsed C1R-A2402
[7] = convalescent donor C7, 21.710 weeks since PCR-confirmed diagnosis, […], peptide-pulsed C1R-A2402
[8] = convalescent donor C8, 47.860 weeks since PCR-confirmed diagnosis, […], peptide-pulsed C1R-A2402
[9] = convalescent donor C9, 21.860 weeks since PCR-confirmed diagnosis, […], peptide-pulsed C1R-A2402
[10] = convalescent donor C10, 24.570 weeks since PCR-confirmed diagnosis, […], peptide-pulsed C1R-A2402
[11] = convalescent donor C11, 24.290 weeks since PCR-confirmed diagnosis, […], peptide-pulsed C1R-A2402
[12] = vaccinated donor V1, 19.000 weeks since 2nd dose, […], C1R-A2402 pre-pulsed with 1 μM peptide
[13] = vaccinated donor V2, 9.570 weeks since 2nd dose, […], C1R-A2402 pre-pulsed with 1 μM peptide
[14] = vaccinated donor V4, 10.430 weeks since 2nd dose, […], C1R-A2402 pre-pulsed with 1 μM peptide
[15] = vaccinated donor V5, 10.570 weeks since 2nd dose, […], C1R-A2402 pre-pulsed with 1 μM peptide
[16] = vaccinated donor V6, 9.570 weeks since 2nd dose, […], C1R-A2402 pre-pulsed with 1 μM peptide
[17] = vaccinated donor V7, 10.140 weeks since 2nd dose, […], C1R-A2402 pre-pulsed with 1 μM peptide
[18] = vaccinated donor V8, 9.860 weeks since 2nd dose, […], C1R-A2402 pre-pulsed with 1 μM peptide
[19] = vaccinated donor V9, 20.570 weeks since 2nd dose, […], C1R-A2402 pre-pulsed with 1 μM peptide
[20] = vaccinated donor V10, 2.000 weeks since 2nd dose, […], C1R-A2402 pre-pulsed with 1 μM peptide
[21] = vaccinated donor V11, 1.430 weeks since 2nd dose, […], C1R-A2402 pre-pulsed with 1 μM peptide
[22] = vaccinated donor V12, 1.000 weeks since 2nd dose, […], C1R-A2402 pre-pulsed with 1 μM peptide
[23] = vaccinated donor V13, 9.000 weeks since 2nd dose, […], C1R-A2402 pre-pulsed with 1 μM peptide
[24] = vaccinated donor V14, 2.000 weeks since 2nd dose, […], C1R-A2402 pre-pulsed with 1 μM peptide
[25] = vaccinated donor V15, 6.860 weeks since 2nd dose, […], C1R-A2402 pre-pulsed with 1 μM peptide
[26] = vaccinated donor V16, 8.860 weeks since 2nd dose, […], C1R-A2402 pre-pulsed with 1 μM peptide
[27] = vaccinated donor V17, 4.140 weeks since 2nd dose, […], C1R-A2402 pre-pulsed with 1 μM peptide
[28] = vaccinated donor V3, 8.860 weeks since 2nd dose, […], C1R-A2402 pre-pulsed with 1 μM peptide

| Sequence | IFNg-producing cells among CD8 T cells (%) [1, 2] | IFNg-producing cells among CD8 T cells (%) [1, 3] | IFNg-producing cells among CD8 T cells (%) [1, 4] | IFNg-producing cells among CD8 T cells (%) [1, 5] | IFNg-producing cells among CD8 T cells (%) [1, 6] | IFNg-producing cells among CD8 T cells (%) [1, 7] | IFNg-producing cells among CD8 T cells (%) [1, 8] | IFNg-producing cells among CD8 T cells (%) [1, 9] | IFNg-producing cells among CD8 T cells (%) [1, 10] | IFNg-producing cells among CD8 T cells (%) [1, 11] | IFNg-producing cells among CD8 T cells (%) [1, 12] | IFNg-producing cells among CD8 T cells (%) [1, 13] | IFNg-producing cells among CD8 T cells (%) [1, 14] | IFNg-producing cells among CD8 T cells (%) [1, 15] | IFNg-producing cells among CD8 T cells (%) [1, 16] | IFNg-producing cells among CD8 T cells (%) [1, 17] | IFNg-producing cells among CD8 T cells (%) [1, 18] | IFNg-producing cells among CD8 T cells (%) [1, 19] | IFNg-producing cells among CD8 T cells (%) [1, 20] | IFNg-producing cells among CD8 T cells (%) [1, 21] | other results |
| --- | --- | --- | --- | --- | --- | --- | --- | --- | --- | --- | --- | --- | --- | --- | --- | --- | --- | --- | --- | --- | --- |
| RFDNPVLPF [S-RF9] | 0.770% | 0.050% | 1.110% | 0.000% | 0.000% | 0.000% | 0.000% | 0.000% | 0.000% | 0.000% | 0% | 0.296% | 0.333% | 0.15% | 0% | 0% | 0% | 0.769% | 0% | 0% | IFNg-producing cells among CD8 T cells (%) [1, 22]: 0.495%; IFNg-producing cells among CD8 T cells (%) [1, 23]: 0.076%; IFNg-producing cells among CD8 T cells (%) [1, 24]: 0.633%; IFNg-producing cells among CD8 T cells (%) [1, 25]: 0%; IFNg-producing cells among CD8 T cells (%) [1, 26]: 0.051%; IFNg-producing cells among CD8 T cells (%) [1, 27]: 0%; MFI, HLA-A2402 (APC), representative staining (HLA-A*24:02): 10.5; binding to HLA-A*24:02 (in words) (HLA-A*24:02; […], 16 peptides tested at 100 μM): did not bind |
| YYVGYLQPRTF [S-YF11] | 0.461% | 0.120% | 0.300% | 0.738% | 0.200% | 0.450% | 0.930% | 0.000% | 0.090% | 0.000% | 0.469% | 0.861% | 0% | 0% | 0.019% | 0% | 0% | 0% | 0% | 0% | IFNg-producing cells among CD8 T cells (%) [1, 28]: 0.031%; IFNg-producing cells among CD8 T cells (%) [1, 22]: 0%; IFNg-producing cells among CD8 T cells (%) [1, 23]: 0.015%; IFNg-producing cells among CD8 T cells (%) [1, 24]: 0%; IFNg-producing cells among CD8 T cells (%) [1, 25]: 0.234%; IFNg-producing cells among CD8 T cells (%) [1, 26]: 0.141%; IFNg-producing cells among CD8 T cells (%) [1, 27]: 0.134%; MFI, HLA-A2402 (APC), representative staining (HLA-A*24:02): 26.7 |
| IYQTSNFRV [S-IV9] | 0.000% | 0.090% | 0.000% | 0.000% | 0.340% | 0.260% | 0.060% | 0.000% | 0.160% | 0.000% | 0% | 0.595% | 0% | 0% | 0.265% | 0% | 0% | 0% | 0% | 0.241% | IFNg-producing cells among CD8 T cells (%) [1, 28]: 0.717%; IFNg-producing cells among CD8 T cells (%) [1, 22]: 0%; IFNg-producing cells among CD8 T cells (%) [1, 23]: 0%; IFNg-producing cells among CD8 T cells (%) [1, 24]: 0%; IFNg-producing cells among CD8 T cells (%) [1, 25]: 0.005%; IFNg-producing cells among CD8 T cells (%) [1, 26]: 0.261%; IFNg-producing cells among CD8 T cells (%) [1, 27]: 0%; MFI, HLA-A2402 (APC), representative staining (HLA-A*24:02): 33.2 |
| RVYSTGSNVF [S-RF10] | 1.394% | 0.025% | 0.000% | 0.000% | 0.000% | 0.000% | 0.600% | 0.000% | 0.420% | 0.000% | 0% | 0% | 0.522% | 1.045% | 0% | 0% | 0.127% | 0% | 0.033% | 0.679% | Freq of responder (%) ([1]; of 17 vaccinated HLA-A*24:02+ individuals (Fig. 4b)): 5.9%; Resp: number of responders (individuals with epitope-specific CD8+ T cells) ([1]; of 17 vaccinated HLA-A*24:02+ individuals, […], 1 μM peptide): one; IFNg-producing cells among CD8 T cells (%) [1, 28]: 0.19%; IFNg-producing cells among CD8 T cells (%) [1, 22]: 0.143%; IFNg-producing cells among CD8 T cells (%) [1, 23]: 0.275%; IFNg-producing cells among CD8 T cells (%) [1, 24]: 0.249%; IFNg-producing cells among CD8 T cells (%) [1, 25]: 0.267%; IFNg-producing cells among CD8 T cells (%) [1, 26]: 0.199%; IFNg-producing cells among CD8 T cells (%) [1, 27]: 0%; MFI, HLA-A2402 (APC), representative staining (HLA-A*24:02): 48.0 |
| AYSNNSIAI [S-AI9] | 0.000% | 0.037% | 0.000% | 0.000% | 0.000% | 0.180% | 0.160% | 0.510% | 0.000% | 0.000% | 0.918% | 0% | 0% | 0.54% | 0.014% | 0% | 0% | 0.488% | 0% | 0.134% | IFNg-producing cells among CD8 T cells (%) [1, 28]: 0%; IFNg-producing cells among CD8 T cells (%) [1, 22]: 0%; IFNg-producing cells among CD8 T cells (%) [1, 23]: 0.166%; IFNg-producing cells among CD8 T cells (%) [1, 24]: 0%; IFNg-producing cells among CD8 T cells (%) [1, 25]: 0%; IFNg-producing cells among CD8 T cells (%) [1, 26]: 0%; IFNg-producing cells among CD8 T cells (%) [1, 27]: 0%; MFI, HLA-A2402 (APC), representative staining (HLA-A*24:02): 36.2 |
| EYVSQPFLM [S-EM9] | 0.455% | 0.097% | 0.355% | 0.063% | 0.000% | 0.160% | 0.480% | 0.000% | 0.650% | 0.000% | 0.75% | 0.88% | 0% | 0.271% | 0.032% | 0% | 0% | 0% | 0.23% | 0.827% | IFNg-producing cells among CD8 T cells (%) [1, 28]: 0.063%; IFNg-producing cells among CD8 T cells (%) [1, 22]: 0%; IFNg-producing cells among CD8 T cells (%) [1, 23]: 0.062%; IFNg-producing cells among CD8 T cells (%) [1, 24]: 0%; IFNg-producing cells among CD8 T cells (%) [1, 25]: 0%; IFNg-producing cells among CD8 T cells (%) [1, 26]: 0.187%; IFNg-producing cells among CD8 T cells (%) [1, 27]: 0%; MFI, HLA-A2402 (APC), representative staining (HLA-A*24:02): 38.7 |
